Laboratory results from patent publication US8329746B2, “Method for treating osteoarthritis” (CaloSyn Pharma, Inc., priority 2005, dated 2012).

Tested on: synovial lining cells
Conditions: human

| Compound | concentration that must not be exceeded in compositions (harmful effects on synovial cells) [µg/mL] |
| --- | --- |
| CCN(CC)CCNC(=O)c1ccc(N)cc1 [procainamide] | ≤ 2000 |
| COc1ccc(CCN(C)CCCC(C#N)(c2ccc(OC)c(OC)c2)C(C)C)cc1OC (centres unmarked) [verapamil] | ≤ 2000 |
